According to US9346839B2:
“Also recorded” adds a separate entry of the source.

Test system: mAPP mice
Experiment: Hippocampal long-term potentiation (LTP) in slices from treated mice
Assay type: in vivo
Experimental: LTP was induced by theta-burst stimulation (TBS) 20 minutes after baseline recordings in hippocampal slices from Non-Tg mice treated with vehicle (n=9 slices from 3 mice), Non-Tg mice treated with Compound 8 (n=9 slices from 3 mice), mAPP mice treated with vehicle (n=8 slices from 3 mice), and mAPP mice treated with Compound 8 (n=8 slices from 3 mice). LTP is expressed as percentage potentiation of baseline (100%) (FIG. 5A).
LTP is expressed as percentage potentiation of baseline (100%) (FIG. 7A).
Synaptic failure in AD is largely reflected by impaired long-term synaptic plasticity in terms of long-term potentiation (LTP). […] Representative field excitatory post-synaptic potentials (fEPSP) waveforms are provided in FIGS. 5A and 7A and the residual potentiation from fEPSP slopes occurring over the last 5 minutes of LTP recording are provided in FIGS. 5B and 7B.

| SMILES | hippocampal long-term potentiation (LTP) |
| --- | --- |
| COc1ccc2nc(N[C@@H](c3ccc(O)cc3)P(=O)(OC)OC)sc2c1 (racemic) [Compound 8, Dimethyl ((4-hydroxyphenyl)((6-methoxybenzo[d]thiazol-2-yl)amino)methyl)phosphonate] | impairments were diminished; also recorded: protective effects |
| COC(=O)c1cc([C@H](Nc2nc3ccc(OC)cc3s2)P(=O)(OC)OC)ccc1O [Compound 4, Methyl 5-((dimethoxyphosphoryl)((6-methoxybenzo[d]thiazol-2-yl)amino)methyl)-2-hydroxybenzoate] | impairments were diminished; also recorded: protective effects |
